In patent publication US7795261B2, “Substituted 1-piperidin-4-yl-4-pyrrolidin-3-yl-piperazine derivatives and their use as neurokinin antagonists” (Janssen Pharmaceutica NV, priority 2002, dated 2010):

Key:
Assay type in all cases: cell-based
[1] = biological target: T1, NK2 (Homo sapiens, UniProt P21452); experiment: Signal transduction (ST), intracellular Ca++ (FLIPR), NK2; conditions: read-out: pIC50 NK2 (converted)
T1 sequence (P21452 1-398): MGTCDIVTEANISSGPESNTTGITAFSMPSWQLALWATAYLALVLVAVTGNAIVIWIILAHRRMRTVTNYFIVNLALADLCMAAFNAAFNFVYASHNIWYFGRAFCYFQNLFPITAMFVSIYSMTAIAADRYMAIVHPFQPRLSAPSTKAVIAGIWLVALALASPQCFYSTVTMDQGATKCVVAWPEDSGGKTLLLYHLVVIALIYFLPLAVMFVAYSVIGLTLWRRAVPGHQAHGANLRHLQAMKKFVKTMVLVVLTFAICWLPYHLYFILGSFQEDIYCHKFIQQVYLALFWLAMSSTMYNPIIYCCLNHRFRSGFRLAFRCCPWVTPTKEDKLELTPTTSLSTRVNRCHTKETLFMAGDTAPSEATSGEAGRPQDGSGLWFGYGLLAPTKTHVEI

[2] = biological target: NK1 (Homo sapiens, UniProt P25103); experiment: Signal transduction (ST), intracellular Ca++ (FLIPR), NK1 antagonistic activity; conditions: read-out: pIC50 NK1 (converted)
Outline: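 Antagonist IC50 was fitted by non-linear regression of peak intracellular Ca++ signals measured on FLIPR after agonist challenge. Beforehand, Fluo3-loaded confluent cells received antagonists over a concentration range for 20 min at room temperature in Ca++ Krebs buffer, pH 7.4.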

[3] = biological target: T2, NK3 (Homo sapiens, UniProt P29371); experiment: Signal transduction (ST), intracellular Ca++ (FLIPR), NK3; conditions: read-out: pIC50 NK3 (converted)
T2 sequence (P29371 1-465): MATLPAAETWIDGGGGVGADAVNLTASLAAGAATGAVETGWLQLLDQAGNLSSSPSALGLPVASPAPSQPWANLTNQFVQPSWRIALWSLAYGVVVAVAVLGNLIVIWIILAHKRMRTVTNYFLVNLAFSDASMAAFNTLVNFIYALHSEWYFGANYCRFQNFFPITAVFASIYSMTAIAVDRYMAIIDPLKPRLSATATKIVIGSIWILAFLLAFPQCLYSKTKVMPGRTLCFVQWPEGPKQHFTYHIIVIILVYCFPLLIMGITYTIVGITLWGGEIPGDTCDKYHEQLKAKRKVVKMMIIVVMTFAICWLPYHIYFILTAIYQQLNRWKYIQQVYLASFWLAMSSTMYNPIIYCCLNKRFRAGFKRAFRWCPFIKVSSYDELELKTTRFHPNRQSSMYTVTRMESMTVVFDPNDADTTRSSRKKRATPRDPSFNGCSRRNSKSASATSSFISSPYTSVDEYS

Sequence of NK1 (P25103 whole entry): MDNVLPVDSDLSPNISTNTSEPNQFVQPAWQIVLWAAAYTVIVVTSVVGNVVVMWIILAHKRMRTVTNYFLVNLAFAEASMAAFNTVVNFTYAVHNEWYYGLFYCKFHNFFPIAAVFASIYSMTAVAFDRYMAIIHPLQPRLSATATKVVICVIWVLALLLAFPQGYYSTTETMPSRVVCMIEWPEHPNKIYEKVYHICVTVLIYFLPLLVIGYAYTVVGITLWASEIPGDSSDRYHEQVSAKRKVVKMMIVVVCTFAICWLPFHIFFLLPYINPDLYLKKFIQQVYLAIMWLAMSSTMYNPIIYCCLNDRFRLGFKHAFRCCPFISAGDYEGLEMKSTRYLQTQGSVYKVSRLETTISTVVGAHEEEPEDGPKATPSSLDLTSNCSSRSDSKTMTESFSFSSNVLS

SMILES | IC50 [1] [nM] | IC50 [2] [nM] | IC50 [3] [nM]
O=C(c1cc(C(F)(F)F)cc(C(F)(F)F)c1)N1CC[C@H](N2CCN(C3CCN(C(=O)C4(O)CC4)C3)CC2)C[C@H]1Cc1ccccc1 (stereo partly drawn) [Compound 276] | 3160 | 10 | 5010
O=C(c1ccsc1)N1CCC(N2CCN(C3CCN(C(=O)c4cc(C(F)(F)F)cc(C(F)(F)F)c4)C(Cc4ccc(F)cc4)C3)CC2)C1 (stereo not drawn) [Compound 278] | 3980 | 15.8 | 2000
O=C(c1ccccc1Cl)N1CCC(N2CCN(C3CCN(C(=O)c4cc(C(F)(F)F)cc(C(F)(F)F)c4)C(Cc4ccc(F)cc4)C3)CC2)C1 (stereo not drawn) [Compound 279] | 3980 | 15.8 | 2000
COc1ccc(S(=O)(=O)N2CCC(N3CCN([C@H]4CCN(C(=O)c5cc(C(F)(F)F)cc(C(F)(F)F)c5)[C@H](Cc5ccccc5)C4)CC3)C2)cc1 (stereo partly drawn) [Compound 280] | 1260 | 15.8 | 3980
Cn1cnc(C(=O)N2CCC(N3CCN([C@H]4CCN(C(=O)c5cc(C(F)(F)F)cc(C(F)(F)F)c5)[C@H](Cc5ccccc5)C4)CC3)C2)c1 (stereo partly drawn) [Compound 282] | 3980 | 12.6 | 3980
N#Cc1ccc(NC(=O)N2CCC(N3CCN([C@H]4CCN(C(=O)c5cc(C(F)(F)F)cc(C(F)(F)F)c5)[C@H](Cc5ccccc5)C4)CC3)C2)cc1 (stereo partly drawn) [Compound 283] | 3980 | 25.1 | 2510
O=C(Nc1ccccc1F)N1CCC(N2CCN([C@H]3CCN(C(=O)c4cc(C(F)(F)F)cc(C(F)(F)F)c4)[C@H](Cc4ccccc4)C3)CC2)C1 (stereo partly drawn) [Compound 284] | 5010 | 12.6 | 3980
O=C(c1cnccn1)N1CC[C@@H](N2CCN([C@H]3CCN(C(=O)c4cc(C(F)(F)F)cc(C(F)(F)F)c4)[C@H](Cc4ccc(Cl)c(Cl)c4)C3)CC2)C1 [Compound 286] | 1000 | 6.31 | 398
O=C(c1ccsc1)N1CC[C@@H](N2CCN([C@H]3CCN(C(=O)c4cc(C(F)(F)F)cc(C(F)(F)F)c4)[C@H](Cc4ccc(Cl)c(Cl)c4)C3)CC2)C1 [Compound 287] | 1260 | 12.6 | 251
O=C(c1ccoc1)N1CC[C@@H](N2CCN([C@H]3CCN(C(=O)c4cc(C(F)(F)F)cc(C(F)(F)F)c4)[C@H](Cc4ccc(Cl)c(Cl)c4)C3)CC2)C1 [Compound 288] | 1580 | 7.94 | 794
CC(C)(C)C(=O)N1CC[C@@H](N2CCN([C@H]3CCN(C(=O)c4cc(C(F)(F)F)cc(C(F)(F)F)c4)[C@H](Cc4ccc(Cl)c(Cl)c4)C3)CC2)C1 [Compound 289] | 2000 | 7.94 | 794
O=C(c1cc(C(F)(F)F)cc(C(F)(F)F)c1)N1CC[C@H](N2CCN(C3CCN(S(=O)(=O)c4sccc4COCc4ccccc4)C3)CC2)C[C@H]1Cc1ccccc1 (stereo partly drawn) [Compound 292] | 794 | 100 | 794
CC(C)NC(=O)N1CCC(N2CCN([C@H]3CCN(C(=O)c4cc(C(F)(F)F)cc(C(F)(F)F)c4)[C@H](Cc4ccccc4)C3)CC2)C1 (stereo partly drawn) [Compound 293] | 6310 | 15.8 | 5010
O=C(C1CCCCN1C(=O)c1ccccc1Cl)N1CCC(N2CCN(C3CCN(C(=O)c4cc(C(F)(F)F)cc(C(F)(F)F)c4)C(Cc4ccccc4)C3)CC2)C1 (stereo not drawn) [Compound 295] | 2000 | 15.8 | 316
O=C(C1CCCCN1C(=O)C1CC1)N1CCC(N2CCN([C@H]3CCN(C(=O)c4cc(C(F)(F)F)cc(C(F)(F)F)c4)[C@H](Cc4ccccc4)C3)CC2)C1 (stereo partly drawn) [Compound 296] | 1580 | 6.31 | 794
CC(C)(C)C(=O)N1CCCCC1C(=O)N1CCC(N2CCN([C@H]3CCN(C(=O)c4cc(C(F)(F)F)cc(C(F)(F)F)c4)[C@H](Cc4ccccc4)C3)CC2)C1 (stereo partly drawn) [Compound 297] | 2510 | 6.31 | 1260
O=C(C1CCCCC1)N1CC[C@@H](N2CCN([C@H]3CCN(C(=O)c4cc(C(F)(F)F)cc(C(F)(F)F)c4)[C@H](Cc4ccc(Cl)c(Cl)c4)C3)CC2)C1 [Compound 299] | 2510 | 7.94 | 794

SMILES | IC50 [1] [nM] | IC50 [2] [nM] | IC50 [3] [nM]
COc1ccccc1S(=O)(=O)N1CCC(N2CCN([C@H]3CCN(C(=O)c4cc(C(F)(F)F)cc(C(F)(F)F)c4)[C@H](Cc4ccccc4)C3)CC2)C1 (stereo partly drawn) [Compound 300] | 794 | 10 | 2000
N#CN=C(N1CCCC1)N1CCC(N2CCN([C@H]3CCN(C(=O)c4cc(C(F)(F)F)cc(C(F)(F)F)c4)[C@H](Cc4ccccc4)C3)CC2)C1 (stereo partly drawn) [Compound 302] | 2510 | 7.94 | 1000
O=C(c1cc(C(F)(F)F)cc(C(F)(F)F)c1)N1CC[C@H](N2CCN(C3CCN(S(=O)(=O)c4ccc(O)cc4)C3)CC2)C[C@H]1Cc1ccccc1 (stereo partly drawn) [Compound 303] | 631 | 6.31 | 3160
CN(C(=O)OC(C)(C)C)C(C)(C)C(=O)N1CCC(N2CCN(C3CCN(C(=O)c4cc(C(F)(F)F)cc(C(F)(F)F)c4)C(Cc4ccccc4)C3)CC2)C1 (stereo not drawn) [Compound 304] | 1580 | 10 | 158
O=C(c1cc(C(F)(F)F)cc(C(F)(F)F)c1)N1CC[C@H](N2CCN(C3CCN(S(=O)(=O)c4ccccc4O)C3)CC2)C[C@H]1Cc1ccccc1 (stereo partly drawn) [Compound 307] | 1260 | 15.8 | 1260
O=C(c1cc(C(F)(F)F)cc(C(F)(F)F)c1)N1CC[C@H](N2CCN(C3CCN(S(=O)(=O)c4sccc4CO)C3)CC2)C[C@H]1Cc1ccccc1 (stereo partly drawn) [Compound 308] | 200 | 7.94 | 251
CN(C(=O)C1CC1)C(C)(C)C(=O)N1CCC(N2CCN(C3CCN(C(=O)c4cc(C(F)(F)F)cc(C(F)(F)F)c4)C(Cc4ccccc4)C3)CC2)C1 (stereo not drawn) [Compound 310] | 2000 | 7.94 | 3980
O=C(C1CC1)N1CC[C@H](N2CCN([C@H]3CCN(C(=O)c4cc(C(F)(F)F)cc(C(F)(F)F)c4)[C@H](Cc4ccc(Cl)c(Cl)c4)C3)CC2)C1 [Compound 312] | 1580 | 7.94 | 501
CC(C)(C)C(=O)N1CC[C@H](N2CCN([C@H]3CCN(C(=O)c4cc(C(F)(F)F)cc(C(F)(F)F)c4)[C@H](Cc4ccc(Cl)c(Cl)c4)C3)CC2)C1 [Compound 313] | 631 | 3.98 | 251
O=C(C1CCCCC1)N1CC[C@H](N2CCN([C@H]3CCN(C(=O)c4cc(C(F)(F)F)cc(C(F)(F)F)c4)[C@H](Cc4ccc(Cl)c(Cl)c4)C3)CC2)C1 [Compound 314] | 1260 | 15.8 | 501
O=C(c1ccccc1Cl)N1CC[C@H](N2CCN([C@H]3CCN(C(=O)c4cc(C(F)(F)F)cc(C(F)(F)F)c4)[C@H](Cc4ccc(Cl)c(Cl)c4)C3)CC2)C1 [Compound 315] | 501 | 5.01 | 631
O=C(c1c(Cl)cccc1Cl)N1CC[C@H](N2CCN([C@H]3CCN(C(=O)c4cc(C(F)(F)F)cc(C(F)(F)F)c4)[C@H](Cc4ccc(Cl)c(Cl)c4)C3)CC2)C1 [Compound 316] | 794 | 20 | 631
O=C(c1ccco1)N1CC[C@H](N2CCN([C@H]3CCN(C(=O)c4cc(C(F)(F)F)cc(C(F)(F)F)c4)[C@H](Cc4ccc(Cl)c(Cl)c4)C3)CC2)C1 [Compound 317] | 398 | 10 | 631
O=C(c1cccs1)N1CC[C@H](N2CCN([C@H]3CCN(C(=O)c4cc(C(F)(F)F)cc(C(F)(F)F)c4)[C@H](Cc4ccc(Cl)c(Cl)c4)C3)CC2)C1 [Compound 318] | 316 | 15.8 | 398
O=C(c1cc(C(F)(F)F)cc(C(F)(F)F)c1)N1CC[C@H](N2CCN(C3CCN(C(CO)c4cccs4)C3)CC2)C[C@H]1Cc1ccccc1 (stereo partly drawn) [Compound 319] | 5010 | 31.6 | 3160
O=C(c1cc(C(F)(F)F)cc(C(F)(F)F)c1)N1CCC(N2CCN(C3CCN(Cc4ccccc4)C3)CC2)CC1Cc1cc(Cl)cc(Cl)c1 (stereo not drawn) [Compound 320] | 3980 | 251 | 2510
O=C(c1cccs1)N1CC[C@@H](N2CCN([C@H]3CCN(C(=O)c4cc(C(F)(F)F)cc(C(F)(F)F)c4)[C@H](Cc4ccccc4)C3)CC2)C1 [Compound 321] | 3160 | 12.6 | 251
